Laboratory results published in US20130331442A1, “Combination Therapy for Cancer” (FINVECTOR VISION THERAPIES LTD, priority 2011, published 2013).
Entries after “also recorded” stand apart in the source; their conditions may differ.

Columns and labels:
[1] = WBC and platelet counts in rats; type: in vivo, rat
rat glioma model = conditions: TMZ therapy alone, in vivo experiments
Description: A study was conducted concerning tumour growth rate in a rat glioma model.

BT4C cell line = test: in vitro cytotoxicity of TMZ on BT4C cell line; type: cell-based
Source text: However, both in vitro and in vivo experiments there were no effect with TMZ therapy alone, implicating that other mechanism of resistance are in operation.
The efficacy of TMZ is known to be affected by different DNA repair activities (Kaina, 2003; Kaina et al., 2007; Parkinson et al., 2008; Takagi et al., 2003; Takagi et al., 2008) and by the presence of functional p53 activity (Blough et al. (2010) J Neurooncol.).

Row | Compound | WBC counts [1] | platelet counts [1] | effect of therapy in vivo (rat glioma model) | cytotoxicity (BT4C cell line; BT4C cells first treated with AdHSV-tk/GCV, TMZ in high concentration) | effect of treatment in vitro (cytotoxicity) (BT4C cell line; BT4C cells, TMZ alone, up to 1000 μM)
1 | Nc1nc(O)c2ncn(COC(CO)CO)c2n1 [GCV, Ganciclovir] | did not reduce these values significantly | did not reduce these values significantly |  |  | 
2 | Cn1nnc2c(C(N)=O)ncn2c1=O [TMZ, Temozolomide] | profound adverse effect | profound adverse effect | no effect | started to demonstrate cytotoxicity | no effect; also recorded: does not respond to the treatment
